Usually pIC50 stands for the negative decadic logarithm of the IC50, by convention in mol/L.

Here are results for six compounds from patent publication US20240287138A1, “CYCLIC PEPTIDES FOR INHIBITING TNF RECEPTOR 1 ACTIVITY” (Merck Sharp & Dohme LLC, priority 2023, published 2024).

Molecules are shown by their SMILES. pIC50: −log10 of the molar value. Numbered stars: 1 amine (or outer) side, 2 acyl side, 3 side chain; on linkers, the order of the positions; unused ones are H or OH. Bridge positions count the residues as written; N and C are the ends. Square brackets hold non-standard residues; d marks the D form. Peptide text beside a SMILES is read from it. * marks the point of attachment. Trp(βS-Me,7-OMe) = COc1cccc2c([C@H](C)[C@H](N)C(=O)O)c[nH]c12; X5 = COc1cccc2[nH]cc([C@H](C)[C@H](N[*:1])C(=O)[*:2])c12; Morpholine(3S-CO,6,6-Me2) = CC1(C)CN[C@H](C(=O)O)CO1; Trp(7-CN) = N#Cc1cccc2c(C[C@H](N)C(=O)O)c[nH]c12; Trp(7-Cl) = N[C@@H](Cc1c[nH]c2c(Cl)cccc12)C(=O)O; Phe(4-CONH2) = NC(=O)c1ccc(C[C@H](N)C(=O)O)cc1; Phe(4-COOH) = N[C@@H](Cc1ccc(C(=O)O)cc1)C(=O)O; Trp(7-aza) = N[C@@H](Cc1c[nH]c2ncccc12)C(=O)O; X3 = C[C@H](c1ccncc1)[C@H](N[*:1])C(=O)[*:2]; X1 = O=C([C@@H]1CC[C@H](N[*:1])C1)[*:2]; Pip(4-aza) = O=C(O)[C@@H]1CNCCN1; hPhe = N[C@@H](CCc1ccccc1)C(=O)O; 4Pal = N[C@@H](Cc1ccncc1)C(=O)O; NMeE = CN[C@@H](CCC(=O)O)C(=O)O; dHyp = O=C(O)[C@H]1C[C@H](O)CN1; Ahp(2) = CCCCC[C@H](N)C(=O)O; NMeS = CN[C@@H](CO)C(=O)O; αMeS = C[C@](N)(CO)C(=O)O; Carboxymethyl = O=C(O)C*; NMeA = CN[C@@H](C)C(=O)O; Nle = CCCC[C@H](N)C(=O)O; Sar = CNCC(=O)O

For the assay, the target named is T1, TNFα-induced NF-κB signal transduction pathway (TNFR1 signaling) in THP-1 cells (Homo sapiens, UniProt P19438).
T1 sequence (P19438 30-455): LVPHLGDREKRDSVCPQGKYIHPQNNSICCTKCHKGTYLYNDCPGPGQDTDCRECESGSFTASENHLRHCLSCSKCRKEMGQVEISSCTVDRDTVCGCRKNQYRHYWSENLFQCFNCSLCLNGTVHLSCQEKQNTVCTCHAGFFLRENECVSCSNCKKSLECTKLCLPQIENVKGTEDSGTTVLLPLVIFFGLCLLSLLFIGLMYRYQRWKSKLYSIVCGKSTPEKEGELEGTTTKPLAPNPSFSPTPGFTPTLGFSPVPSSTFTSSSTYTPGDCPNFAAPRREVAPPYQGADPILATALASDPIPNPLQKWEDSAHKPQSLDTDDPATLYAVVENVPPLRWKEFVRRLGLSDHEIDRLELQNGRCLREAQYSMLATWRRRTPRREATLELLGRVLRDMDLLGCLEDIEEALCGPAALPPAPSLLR
Kind of assay: THP-1 Lucia NF-κB reporter cell assay, inhibition of TNFα-induced NF-κB signaling. Type of assay: cell-based. The following applies: THP-1 NF-κB Lucia reporter cells, 10 ng/mL TNFα, 16-18 h, secreted luciferase; read-out: THP-1 IC50. The method in brief: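 Read-out: secreted Lucia luciferase luminescence (QUANTI-Luc) from supernatant after 16-18 h, 37 °C, 10 ng/mL rhTNFα. Peptide pretreatment 1 h at 37 °C; 20,000 cells/well, selection antibiotics omitted. IC50 via 4-parameter logistic model against min/max controls.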
In the case of `CCCCC[C@@H]1NC(=O)[C@@H]2CC[C@@H](C2)NC(=O)[C@H]([C@@H](C)c2c[nH]c3c(OC)cccc23)NC(=O)CN(C)C(=O)[C@H](Cc2ccc(C(N)=O)cc2)NC(=O)[C@H](Cc2ccc(C(N)=O)cc2)NC(=O)[C@](C)(CO)NC(=O)[C@H](Cc2c[nH]c3c(C#N)cccc23)NC(=O)[C@H](Cc2ccc(C(=O)O)cc2)NC(=O)[C@H](CC(N)=O)NC(=O)[C@H]2C[C@H](OCC(=O)O)CN2C(=O)[C@H](Cc2c[nH]c3ccccc23)NC(=O)[C@@H]2CNCCN2C(=O)[C@H](Cc2ccncc2)NC1=O` [SEQ ID NO. 140] (cyclo([4Pal][Pip(4-aza)]W[dHyp](Carboxymethyl)N[Phe(4-COOH)][Trp(7-CN)][αMeS][Phe(4-CONH2)][Phe(4-CONH2)][Sar][Trp(βS-Me,7-OMe)][X1][Ahp(2)])), the negative logarithm of the IC50 (pIC50) was 9.30.
As to `CCCC[C@@H]1NC(=O)CSC[C@@H](C(N)=O)NC(=O)[C@H]([C@@H](C)c2c[nH]c3c(OC)cccc23)NC(=O)CN(C)C(=O)[C@H](Cc2ccc(O)cc2)NC(=O)[C@H](Cc2ccc(C(=O)O)cc2)NC(=O)[C@](C)(CO)NC(=O)[C@H](Cc2c[nH]c3c(Cl)cccc23)NC(=O)[C@H](Cc2ccc(OC)cc2)NC(=O)[C@H](CC(N)=O)NC(=O)[C@H](CCC(=O)O)N(C)C(=O)[C@H](Cc2c[nH]c3ccccc23)NC(=O)[C@@H]2CNCCN2C(=O)[C@H](Cc2ccncc2)NC1=O` [SEQ ID NO. 218] ({CH2CO}-[Nle][4Pal][Pip(4-aza)]W[NMeE]NY(Me)[Trp(7-Cl)][αMeS][Phe(4-COOH)]Y[Sar][Trp(βS-Me,7-OMe)]C-NH2; thioether N-14), the pIC50 was 8.47.
The same measure for `CCCC[C@@H]1NC(=O)CSC[C@@H](C(N)=O)NC(=O)[C@H]([C@@H](C)c2c[nH]c3c(OC)cccc23)NC(=O)CN(C)C(=O)[C@H](Cc2ccc(O)cc2)NC(=O)[C@H](Cc2ccc(C(=O)O)cc2)NC(=O)[C@](C)(CO)NC(=O)[C@H](Cc2c[nH]c3c(Cl)cccc23)NC(=O)[C@H](Cc2ccncc2)NC(=O)[C@H](CC(N)=O)NC(=O)[C@H](CCC(=O)O)N(C)C(=O)[C@H](Cc2c[nH]c3ncccc23)NC(=O)[C@H](CO)NC(=O)[C@H]([C@H](C)c2ccncc2)NC1=O` [SEQ ID NO. 143] ({CH2CO}-[Nle][X3]S[Trp(7-aza)][NMeE]N[4Pal][Trp(7-Cl)][αMeS][Phe(4-COOH)]Y[Sar][Trp(βS-Me,7-OMe)]C-NH2; thioether N-14): 8.66; for `C[C@H]1C(=O)N[C@@H](CC(N)=O)C(=O)N[C@@H](Cc2ccncc2)C(=O)N[C@@H](Cc2c[nH]c3ccccc23)C(=O)N[C@@](C)(CO)C(=O)N[C@@H](Cc2ccc(C(=O)O)cc2)C(=O)N[C@@H](CCCNC(=N)N)C(=O)N(C)CC(=O)N[C@@H](Cc2c[nH]c3ccccc23)C(=O)N[C@H](C(N)=O)CSCC(=O)N[C@@H](CCc2ccccc2)C(=O)N[C@@H](Cc2ccc(O)cc2)C(=O)N[C@@H](CO)C(=O)N[C@@H](Cc2c[nH]c3ccccc23)C(=O)N1C` [SEQ ID NO. 260] ({CH2CO}-[hPhe]YSW[NMeA]N[4Pal]W[αMeS][Phe(4-COOH)]R[Sar]WC-NH2; thioether N-14): 7.30.
The same measure for `CCCC[C@@H]1NC(=O)CSC[C@@H](C(N)=O)NC(=O)[C@H]([C@@H](C)c2c[nH]c3c(OC)cccc23)NC(=O)CN(C)C(=O)[C@H](Cc2ccc(O)cc2)NC(=O)[C@H](Cc2ccc(C(=O)O)cc2)NC(=O)[C@](C)(CO)NC(=O)[C@H](Cc2c[nH]c3c(Cl)cccc23)NC(=O)[C@H](Cc2ccc(OCC(=O)O)cc2)NC(=O)[C@H](CC(N)=O)NC(=O)[C@H](CCC(=O)O)N(C)C(=O)[C@H](Cc2c[nH]c3ccccc23)NC(=O)[C@@H]2COC(C)(C)CN2C(=O)[C@H](Cc2ccncc2)NC1=O` [SEQ ID NO. 179] ({CH2CO}-[Nle][4Pal][Morpholine(3S-CO,6,6-Me2)]W[NMeE]NY(Carboxymethyl)[Trp(7-Cl)][αMeS][Phe(4-COOH)]Y[Sar][Trp(βS-Me,7-OMe)]C-NH2; thioether N-14): 8.62.
For `CCCC[C@@H]1NC(=O)CSC[C@@H](C(N)=O)NC(=O)[C@H]([C@@H](C)c2c[nH]c3cccc(OC)c23)NC(=O)CN(C)C(=O)[C@H](Cc2ccc(O)cc2)NC(=O)[C@H](Cc2ccc(C(N)=O)cc2)NC(=O)[C@](C)(CO)NC(=O)[C@H](Cc2c[nH]c3c(Cl)cccc23)NC(=O)[C@H](Cc2ccc(C(=O)O)cc2)NC(=O)[C@H](CC(N)=O)NC(=O)[C@H](CCC(=O)O)N(C)C(=O)[C@H](Cc2c[nH]c3ncccc23)NC(=O)[C@H](CO)N(C)C(=O)[C@H](Cc2ccncc2)NC1=O` [SEQ ID NO. 209] ({CH2CO}-[Nle][4Pal][NMeS][Trp(7-aza)][NMeE]N[Phe(4-COOH)][Trp(7-Cl)][αMeS][Phe(4-CONH2)]Y[Sar][X5]C-NH2; thioether N-14), the pIC50 is 8.57.
